# Earlier results as cited in US8791150B2, “Pharmaceutical composition for peroral administration of diindolylmethane” (Zakrytoe Aktsionernoe Obschestvo “Veles Farma”, priority 2009, dated 2014).
# Experiments:
# [1] = test system: normal (untransformed) keratinocytes; details: in vitro; cited from earlier work
# [2] = test system: pathological neoangiogenesis; details: injected subcutaneously, 5 mg/kg daily; cited from earlier work
# [3] = test system: cellular cervical cancer lines; details: one of the three cellular cervical cancer lines studied; cited from earlier work
SMILES,apoptotic changes in normal keratinocytes [1],suppression of pathological neoangiogenesis [2],LD50 [3]
"c1ccc2c(Cc3c[nH]c4ccccc34)c[nH]c2c1 [DIM, 3,3′-diindolylmethane]",did not induce any apoptotic changes,74%,–
"OCc1c[nH]c2ccccc12 [Pluronic I3C, indole-3-carbinol]",–,–,200 µM
